biological target: Glutaminyl-peptide cyclotransferase (Homo sapiens, UniProt Q16769); experiment: Spectrophotometic Assay: Spectrophotometic Assay: This novel assay was used to determine the kinetic parameters for most of the QC substrates. QC activity was analyzed spectrophotometrically using a continuous method, that was derived by adapting a previous discontinuous assay (Bateman, R.C.J. 1989 J Neurosci Methods 30, 23-28).
Sequence (Q16769 whole entry): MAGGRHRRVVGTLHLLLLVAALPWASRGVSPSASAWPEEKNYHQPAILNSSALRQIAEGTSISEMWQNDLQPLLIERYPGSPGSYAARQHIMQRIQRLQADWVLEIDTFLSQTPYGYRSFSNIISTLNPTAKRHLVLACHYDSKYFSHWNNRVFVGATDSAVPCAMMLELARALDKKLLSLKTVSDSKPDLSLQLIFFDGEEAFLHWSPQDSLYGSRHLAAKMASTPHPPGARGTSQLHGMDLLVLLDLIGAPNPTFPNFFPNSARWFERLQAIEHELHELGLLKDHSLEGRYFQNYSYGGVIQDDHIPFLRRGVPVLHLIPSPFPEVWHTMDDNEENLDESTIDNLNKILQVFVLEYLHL

IC50 [µM] | SMILES
< 10 | O=C1c2ccccc2[C@H](c2ccc(Cl)cc2)N1c1ccc2[nH]cnc2c1
< 10 | O=C1NCC(c2ccc(C3CCOCC3)cc2)N1c1ccc2[nH]cnc2c1 (centres undefined)
< 10 | O=C1OC[C@H](c2ccc(Cl)cc2)N1c1ccc2nc[nH]c2c1
< 10 | O=C1NCC(c2ccc(N3CCCCC3)cc2)N1c1ccn2ccnc2c1 (centres undefined)
< 10 | O=C1OC[C@H](c2ccc(C3CCCCC3)cc2)N1c1ccn2ccnc2c1
< 10 | COCCCc1ccc(C2CNC(=O)N2c2ccc3[nH]cnc3c2)cc1 (centres undefined)
< 10 | O=C1OC[C@H](CCc2ccccc2)N1c1ccc2[nH]cnc2c1
< 10 | COc1cc(F)c(C2CNC(=O)N2c2ccn3ccnc3c2)c(F)c1 (centres undefined)
< 10 | O=C1OC[C@H](c2cccc(N3CCN(c4ccccc4)CC3)c2)N1c1ccc2nc[nH]c2c1
< 10 | O=C1OC[C@H](c2ccc(N3CCCCC3)cc2)N1c1ccn2ccnc2c1
< 10 | CCCOc1ccc(C2CN(Cc3ccc4ccccc4c3)C(=O)N2c2ccc3[nH]cnc3c2)cc1 (centres undefined)
< 10 | O=C1NCC(C2CCC(c3ccccc3)CC2)N1c1ccc2nc[nH]c2c1 (centres undefined)
< 10 | O=C1OC[C@H](c2cccc(Cl)c2)N1c1ccc2nc[nH]c2c1
< 10 | COCCCc1ccc([C@H]2COC(=O)N2c2ccc3[nH]cnc3c2)cc1
< 10 | O=C1OC[C@H](c2cccc(-c3cccc(Cl)c3)c2)N1c1ccc2nc[nH]c2c1
< 10 | O=C1NCC(c2ccc(OCCCN3CCOCC3)cc2)N1c1ccc2nc[nH]c2c1 (centres undefined)
< 10 | O=C1NCC(c2ccc(OCCN3CCOCC3)cc2)N1c1ccn2ccnc2c1 (centres undefined)
< 10 | CC(C)Oc1ccc(C2CNC(=O)N2c2ccc3nc[nH]c3c2)cc1 (centres undefined)
< 10 | O=C1NCC(c2ccc(Cl)cc2)N1c1ccc2[nH]cnc2c1 (centres undefined)
< 10 | COc1ccc(C2CN(N)C(=O)N2c2ccc3[nH]cnc3c2)cc1 (centres undefined)
< 10 | COCCN(CCOC)c1ccc([C@H]2COC(=O)N2c2ccc3[nH]cnc3c2)cc1
< 10 | O=C1NCC(c2cccc(-c3ccccc3)c2)N1c1ccc2[nH]cnc2c1 (centres undefined)

IC50 [µM] | SMILES
< 10 | O=C1NCC(c2ccc(N3CCOCC3)cc2)N1c1ccc2[nH]cnc2c1 (centres undefined)
< 10 | O=C1CCC(c2ccc(C3CNC(=O)N3c3ccc4[nH]cnc4c3)cc2)CC1 (centres undefined)
< 10 | O=C1NCC(c2cc(C(F)(F)F)ccc2F)N1c1ccc2[nH]cnc2c1 (centres undefined)
< 10 | CC(C)Oc1ccc(C[C@H]2COC(=O)N2c2ccc3[nH]cnc3c2)cc1
< 10 | COc1ccc(C2CCC(=O)N2c2ccc3[nH]cnc3c2)cc1 (centres undefined)
< 10 | O=C1NCC(c2ccccc2Cl)N1c1ccc2nc[nH]c2c1 (centres undefined)
< 10 | O=C1CCC(c2ccc(C3COC(=O)N3c3ccc4[nH]cnc4c3)cc2)CC1 (centres undefined)
< 10 | O=C1NCC(c2c(Cl)cccc2Cl)N1c1ccc2nc[nH]c2c1 (centres undefined)
< 10 | O=C1NCC(c2cccc(N3CCCCC3)c2)N1c1ccn2ccnc2c1 (centres undefined)
< 10 | CCCOc1ccc(C2CNC(=O)N2c2ccc3[nH]cnc3c2)cc1F (centres undefined)
< 10 | O=C1NCC(c2ccc(N3CCN(c4ccccc4)CC3)cc2)N1c1ccc2nc[nH]c2c1 (centres undefined)
< 10 | O=C1NCC(c2ccc(F)cc2)N1c1ccc2[nH]cnc2c1 (centres undefined)
< 10 | O=C1OC[C@H](C2CCN(c3ccccc3)CC2)N1c1ccc2[nH]cnc2c1
< 10 | O=C1NCC(c2c(F)cccc2F)N1c1ccc2[nH]cnc2c1 (centres undefined)
< 10 | O=C1OC[C@H](C2CCC(c3ccccc3)CC2)N1c1ccc2[nH]cnc2c1 (some centres undefined)
< 10 | CN1CCN(c2cccc([C@H]3COC(=O)N3c3ccc4nc[nH]c4c3)c2)CC1
< 10 | COc1ccccc1C1CNC(=O)N1c1ccc2[nH]cnc2c1 (centres undefined)
< 10 | CN(C)CCOc1ccc([C@H]2CNC(=O)N2c2ccc3[nH]cnc3c2)cc1
< 10 | O=C1NCC(c2c(F)cccc2F)N1c1ccn2ccnc2c1 (centres undefined)
< 10 | O=C1NCC(c2ccc3c(c2)OCCO3)N1c1ccc2[nH]cnc2c1 (centres undefined)
< 10 | O=C1c2ccccc2C(c2ccc(Cl)cc2)N1c1ccc2[nH]cnc2c1 (centres undefined)
< 10 | O=C1OC[C@H](c2ccc3c(c2)OCO3)N1c1ccc2nc[nH]c2c1

IC50 [µM] | SMILES
< 10 | O=C1NCC(c2cccc(Cl)c2Cl)N1c1ccc2nc[nH]c2c1 (centres undefined)
< 10 | O=C1OCC(c2ccc(C3CCOCC3)cc2)N1c1ccc2[nH]cnc2c1 (centres undefined)
< 10 | Cc1nc2ccc(N3C(=O)OC[C@@H]3c3ccccc3)cc2[nH]1
< 10 | CN1CCN(c2ccc([C@H]3COC(=O)N3c3ccc4nc[nH]c4c3)cc2)CC1
< 10 | O=C1NCC(c2ccc(OC3CCCCC3)cc2)N1c1ccc2[nH]cnc2c1 (centres undefined)
< 10 | O=C1OC[C@H](c2ccc(N3CCOCC3)cc2)N1c1ccn2ccnc2c1
< 10 | CC1(C)OC(=O)N(c2ccc3nc[nH]c3c2)[C@H]1c1ccccc1
< 10 | O=C1OC[C@H](c2ccccc2)N1c1cc(F)c2[nH]cnc2c1
< 10 | C[C@@H]1OC(=O)N(c2ccc3nc[nH]c3c2)[C@H]1c1ccccc1
< 10 | CCCOc1ccc([C@H]2[C@H](c3ccccc3)OC(=O)N2c2ccc3[nH]cnc3c2)cc1
< 10 | O=C1NCC(C2CCN(c3ccccc3)CC2)N1c1ccc2nc[nH]c2c1 (centres undefined)
< 10 | COc1cc(F)c(C2CNC(=O)N2c2ccc3nc[nH]c3c2)c(F)c1 (centres undefined)
< 10 | O=C1NCC(c2ccccc2F)N1c1ccc2[nH]cnc2c1 (centres undefined)
< 10 | O=C1NCC(c2cccc(Cl)c2)N1c1ccc2nc[nH]c2c1 (centres undefined)
< 10 | CCCCCOc1ccc(C2CNC(=O)N2c2ccc3nc[nH]c3c2)cc1 (centres undefined)
< 10 | O=C1OC[C@H](c2ccc(N(C3CC3)C3CC3)cc2)N1c1ccc2[nH]cnc2c1
< 10 | O=C1NCC(c2ccc(-c3cccc(Cl)c3)cc2)N1c1ccc2[nH]cnc2c1 (centres undefined)
< 10 | O=C1OC[C@H](c2ccc(N3CCCCC3)cc2)N1c1ccc2[nH]cnc2c1
< 10 | COc1ccc([C@H]2[C@@H](C)NC(=O)N2c2ccc3nc[nH]c3c2)cc1
< 10 | O=C1NCC(c2ccc(-c3ccccc3)c(F)c2)N1c1ccc2[nH]cnc2c1 (centres undefined)
< 10 | O=C1OC[C@H](c2ccc(OCCN3CCOCC3)cc2)N1c1ccc2[nH]cnc2c1
< 10 | CCN(CC)c1ccc([C@H]2COC(=O)N2c2ccc3[nH]cnc3c2)cc1

IC50 [µM] | SMILES
< 10 | COCCOc1ccc(C2CNC(=O)N2c2ccc3[nH]cnc3c2)cc1 (centres undefined)
< 10 | CCN(CC)c1ccc([C@H]2CNC(=O)N2c2ccc3[nH]cnc3c2)cc1
< 10 | O=C1OCC(c2ccc(N3CCCC3)cc2)N1c1ccc2[nH]cnc2c1 (centres undefined)
< 10 | O=C1OC[C@H](CC2CCCCC2)N1c1ccc2[nH]cnc2c1
< 10 | CCCCOc1ccc(C2CNC(=O)N2c2ccc3nc[nH]c3c2)cc1 (centres undefined)
< 10 | O=C1NCC(c2cccc(F)c2)N1c1ccc2nc[nH]c2c1 (centres undefined)
< 10 | CN1CCC(c2ccc(C3COC(=O)N3c3ccc4[nH]cnc4c3)cc2)CC1 (centres undefined)
< 10 | CN(C)CCCc1ccc([C@@H]2COC(=O)N2c2ccc3[nH]cnc3c2)cc1
< 10 | CCCOc1ccc(C[C@H]2COC(=O)N2c2ccc3[nH]cnc3c2)cc1
< 10 | O=C1OC[C@H](c2ccccc2)N1c1ccc2[nH]cnc2c1
< 10 | O=C1OC[C@H](c2ccc(-c3cccc(Cl)c3)cc2)N1c1ccc2nc[nH]c2c1
< 10 | O=C1NCC(c2ccc3c(c2)OC(F)(F)O3)N1c1ccc2[nH]cnc2c1 (centres undefined)
< 10 | CCCOc1ccc(C2CN(CCCc3ccccc3)C(=O)N2c2ccc3[nH]cnc3c2)cc1 (centres undefined)
< 10 | O=C1OC[C@H](c2ccc(-c3ccccc3)cc2)N1c1ccc2[nH]cnc2c1
< 10 | CCCOc1ccc(C2CN(CCc3ccccc3)C(=O)N2c2ccc3[nH]cnc3c2)cc1 (centres undefined)
< 10 | COC1CCC(c2ccc(C3COC(=O)N3c3ccc4[nH]cnc4c3)cc2)CC1 (centres undefined)
< 10 | CC(c1ccccc1)C1COC(=O)N1c1ccc2[nH]cnc2c1 (centres undefined)
< 10 | O=C1OC[C@H](c2cc(F)cc(C(F)(F)F)c2)N1c1ccc2nc[nH]c2c1
< 10 | O=C1NCC(c2ccc(C3CCCCC3)cc2)N1c1ccc2[nH]cnc2c1 (centres undefined)
< 10 | CCCOc1ccc(C2CCC(=O)N2c2ccc3[nH]cnc3c2)cc1 (centres undefined)
< 10 | COc1ccc(C2CNC(=O)N2c2ccc3nc[nH]c3c2)cc1F (centres undefined)
< 10 | COc1cc(F)c(C2COC(=O)N2c2ccc3[nH]cnc3c2)c(F)c1 (centres undefined)

IC50 [µM] | SMILES
< 10 | COc1cc(C2CNC(=O)N2c2ccc3[nH]cnc3c2)cc2c1OCO2 (centres undefined)
< 10 | O=C1NC[C@H](c2ccc(C3CCC(F)(F)CC3)cc2)N1c1ccc2[nH]cnc2c1
< 10 | O=C1OC[C@H](c2ccc(N3CCN(c4ccccc4)CC3)cc2)N1c1ccn2ccnc2c1
< 10 | O=C1OC[C@H](c2cccc(F)c2)N1c1ccc2[nH]cnc2c1
< 10 | COc1cccc(C2CNC(=O)N2c2ccc3nc[nH]c3c2)c1 (centres undefined)
< 10 | O=C1OC[C@H](c2cccc(F)c2F)N1c1ccc2nc[nH]c2c1
< 10 | O=C1NCC(c2ccc(C3CCC(N4CCOCC4)CC3)cc2)N1c1ccc2[nH]cnc2c1 (centres undefined)
< 10 | Cc1cc(N2C(=O)OC[C@@H]2c2ccccc2)cc2nc[nH]c12
< 10 | O=C1NCC(c2ccc(-c3ccccc3)c(F)c2)N1c1ccn2ccnc2c1 (centres undefined)
< 10 | O=C1NCC(c2ccc(OCCN3CCOCC3)cc2)N1c1ccc2nc[nH]c2c1 (centres undefined)
< 10 | O=C1NCC(c2ccc(O)cc2)N1c1ccc2[nH]cnc2c1 (centres undefined)
< 10 | O=C1NCC(c2ccc(OC(F)(F)C(F)F)cc2)N1c1ccc2[nH]cnc2c1 (centres undefined)
< 10 | O=C1OC[C@H](c2ccc(N3CCOCC3)cc2)N1c1ccc2[nH]cnc2c1
< 10 | O=C1NCC(c2ccc(Cl)c(Cl)c2)N1c1ccc2nc[nH]c2c1 (centres undefined)
< 10 | O=C1OC[C@H](c2ccc(OCCN3CCNCC3)cc2)N1c1ccc2[nH]cnc2c1
< 10 | O=C1OC[C@H](c2ccc3c(c2)OCCO3)N1c1ccc2nc[nH]c2c1
< 10 | O=C1NCC(c2ccccc2OCCN2CCOCC2)N1c1ccc2nc[nH]c2c1 (centres undefined)
< 10 | COc1cc(C2CNC(=O)N2c2ccn3ccnc3c2)cc2c1OCO2 (centres undefined)
< 10 | O=C1OCC(c2ccc(OC3CCCCC3)cc2)N1c1ccc2[nH]cnc2c1 (centres undefined)
< 10 | COCCOc1ccc([C@H]2COC(=O)N2c2ccc3[nH]cnc3c2)cc1
< 10 | CN(C)CCOc1ccc([C@H]2COC(=O)N2c2ccc3[nH]cnc3c2)cc1

From ChEMBL document CHEMBL3638480, “Inhibitors” (2013)
